From PubChem BioAssay (NCI)
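Method: 48-hour compound exposure of cells in 96-well plates, five concentrations, linear interpolation of endpoints. TGI: total growth inhibition.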

Key:
Assay in all cases: DTP human tumour cell line panel, 48 h
[1] = tested on: NCI-H522 lung
[2] = tested on: HOP-62 NSCLC
[3] = tested on: HCT-15 colon
[4] = tested on: SF-539 CNS
[5] = tested on: SN12C renal
[6] = tested on: K-562 leukemia
[7] = tested on: IGROV1 ovarian
[8] = tested on: SK-MEL-28 melanoma
[9] = tested on: 786-0 renal
[10] = tested on: BT-549 breast

O=C(O)Cc1ccc(Oc2nc3ccccc3nc2-c2ccccc2)cc1
TGI [1]: > 100 µM | TGI [2]: > 100 µM | TGI [3]: > 100 µM | TGI [4]: > 100 µM | TGI [5]: > 100 µM | TGI [6]: > 100 µM | TGI [7]: > 100 µM | TGI [8]: > 100 µM | TGI [9]: > 100 µM | TGI [10]: > 100 µM

O=C1NC2=NN=C(c3ccc(Br)cc3)CN2NC12c1ccccc1-c1ccccc12
TGI [1]: > 100 µM | TGI [2]: > 100 µM | TGI [3]: > 100 µM | TGI [4]: > 100 µM | TGI [5]: > 100 µM | TGI [6]: > 100 µM | TGI [7]: > 100 µM | TGI [8]: > 100 µM | TGI [9]: > 100 µM | TGI [10]: > 100 µM

CC(=O)c1sc2c(c1O)c(=O)n(-c1ccccc1)c(=S)n2-c1ccccc1
TGI [1]: > 100 µM | TGI [3]: > 100 µM | TGI [5]: > 100 µM | TGI [6]: > 100 µM | TGI [7]: > 100 µM | TGI [8]: > 100 µM | TGI [9]: > 100 µM | TGI [10]: > 100 µM

COc1cccc(-c2[nH]c3cc4c(cc3c(=O)c2C(=O)O)OCO4)c1
TGI [2]: > 100 µM | TGI [3]: > 100 µM | TGI [4]: 69.4 µM | TGI [5]: > 100 µM | TGI [6]: > 100 µM | TGI [7]: > 100 µM | TGI [8]: > 100 µM | TGI [9]: > 100 µM | TGI [10]: > 100 µM

N#C[C@H](C(=O)c1ccccc1F)c1nc2ccccc2[nH]1
TGI [2]: > 100 µM | TGI [3]: > 100 µM | TGI [4]: > 100 µM | TGI [5]: > 100 µM | TGI [6]: > 100 µM | TGI [7]: > 100 µM | TGI [8]: > 100 µM | TGI [9]: > 100 µM | TGI [10]: > 100 µM

CC(=O)O[C@H]1C[C@@H](OC(C)=O)[C@@](C)(O)[C@@H]2[C@@H](OC(C)=O)[C@@]3(O)[C@H](/C=C(/CCl)[C@H]4O[C@H]4[C@@H](OC(C)=O)[C@@]12C)OC(=O)[C@@H]3C
TGI [1]: > 25 µM | TGI [2]: > 25 µM | TGI [3]: > 25 µM | TGI [5]: > 25 µM | TGI [6]: > 25 µM | TGI [7]: > 25 µM | TGI [8]: > 25 µM | TGI [9]: > 25 µM | TGI [10]: > 25 µM

CC(=O)Oc1ccc2cc(Oc3ccccc3)c(=O)oc2c1
TGI [1]: 70.7 µM | TGI [2]: > 100 µM | TGI [3]: > 100 µM | TGI [4]: > 100 µM | TGI [5]: > 100 µM | TGI [7]: > 100 µM | TGI [8]: > 100 µM | TGI [9]: > 100 µM | TGI [10]: > 100 µM

Brc1ccc(-c2nc(-c3ccc(Br)cc3)n(-c3ccccc3)n2)cc1
TGI [1]: > 100 µM | TGI [2]: > 100 µM | TGI [3]: > 100 µM | TGI [4]: > 100 µM | TGI [5]: > 100 µM | TGI [7]: > 100 µM | TGI [8]: > 100 µM | TGI [9]: > 100 µM | TGI [10]: > 100 µM

N=C(N)c1ccc(N=Nc2c(O)ccc3cc(O)ccc23)cc1
TGI [1]: > 100 µM | TGI [2]: > 100 µM | TGI [3]: > 100 µM | TGI [4]: > 100 µM | TGI [6]: > 100 µM | TGI [7]: > 100 µM | TGI [8]: > 100 µM | TGI [9]: > 100 µM | TGI [10]: > 100 µM

CSC1(Cc2ccccn2)C(=O)Nc2cccc([N+](=O)[O-])c21 (centres undefined)
TGI [1]: > 100 µM | TGI [2]: > 100 µM | TGI [3]: > 100 µM | TGI [4]: > 100 µM | TGI [5]: > 100 µM | TGI [7]: > 100 µM | TGI [8]: > 100 µM | TGI [9]: > 100 µM | TGI [10]: > 100 µM

Nc1ncnc2c1N=C(c1ccccc1)CC(c1ccccc1)N2 (centres undefined)
TGI [1]: > 100 µM | TGI [2]: > 100 µM | TGI [3]: > 100 µM | TGI [4]: > 100 µM | TGI [5]: > 100 µM | TGI [6]: > 100 µM | TGI [8]: > 100 µM | TGI [9]: > 100 µM | TGI [10]: > 100 µM

Nc1ncc(Sc2ccccc2C(=O)O)s1
TGI [2]: > 100 µM | TGI [3]: > 100 µM | TGI [4]: > 100 µM | TGI [5]: > 100 µM | TGI [6]: > 100 µM | TGI [7]: > 100 µM | TGI [8]: > 100 µM | TGI [9]: > 100 µM | TGI [10]: > 100 µM
